Tests used:
[1] = biological target: Protein-tyrosine kinase 2-beta (Homo sapiens) (UniProt Q14289); assay: Inhibition of PYK2 (unknown origin) at 10 uM after 120 mins P33 radiolabeled kinase activity assay
[2] = biological target: T1, Tyrosine-protein kinase ITK/TSK (Homo sapiens) (UniProt Q08881); assay: Inhibition of ITK (unknown origin) at 10 uM after 120 mins P33 radiolabeled kinase activity assay
T1 sequence (whole entry): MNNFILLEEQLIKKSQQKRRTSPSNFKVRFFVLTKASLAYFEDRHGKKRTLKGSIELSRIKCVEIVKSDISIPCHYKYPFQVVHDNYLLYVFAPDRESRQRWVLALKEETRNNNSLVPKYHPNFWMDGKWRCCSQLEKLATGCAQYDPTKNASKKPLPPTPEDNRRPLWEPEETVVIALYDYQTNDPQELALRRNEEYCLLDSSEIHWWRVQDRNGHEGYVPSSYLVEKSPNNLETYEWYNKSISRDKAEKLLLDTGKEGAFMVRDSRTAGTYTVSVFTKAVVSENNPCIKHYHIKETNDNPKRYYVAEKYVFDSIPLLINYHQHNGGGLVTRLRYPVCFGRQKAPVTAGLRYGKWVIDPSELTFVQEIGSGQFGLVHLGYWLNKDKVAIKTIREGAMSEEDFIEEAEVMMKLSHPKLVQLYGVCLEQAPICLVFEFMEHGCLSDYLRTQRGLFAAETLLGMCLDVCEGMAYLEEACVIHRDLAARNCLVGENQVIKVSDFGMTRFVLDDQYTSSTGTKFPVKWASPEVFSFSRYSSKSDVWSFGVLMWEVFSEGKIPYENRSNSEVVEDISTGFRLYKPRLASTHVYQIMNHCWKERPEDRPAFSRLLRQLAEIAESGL

[3] = biological target: T2, Serine/threonine-protein kinase STK11 (Homo sapiens) (UniProt Q15831); assay: Inhibition of LKB1 (unknown origin) at 10 uM after 120 mins P33 radiolabeled kinase activity assay
T2 sequence (whole entry): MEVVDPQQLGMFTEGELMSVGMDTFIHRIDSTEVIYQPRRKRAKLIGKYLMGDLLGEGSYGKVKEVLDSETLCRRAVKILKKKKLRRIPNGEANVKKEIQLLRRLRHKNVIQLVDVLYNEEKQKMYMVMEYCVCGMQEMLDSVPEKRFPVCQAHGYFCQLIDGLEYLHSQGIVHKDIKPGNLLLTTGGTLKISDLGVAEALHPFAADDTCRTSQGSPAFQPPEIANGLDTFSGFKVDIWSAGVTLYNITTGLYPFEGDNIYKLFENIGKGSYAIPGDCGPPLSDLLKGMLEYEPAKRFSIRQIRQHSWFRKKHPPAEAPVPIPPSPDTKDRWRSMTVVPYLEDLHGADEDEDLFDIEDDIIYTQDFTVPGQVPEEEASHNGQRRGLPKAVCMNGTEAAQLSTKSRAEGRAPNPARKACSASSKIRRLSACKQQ

[4] = biological target: Dual specificity mitogen-activated protein kinase kinase 2 (Homo sapiens) (UniProt P36507); assay: Inhibition of MEK2 (unknown origin) at 10 uM after 120 mins P33 radiolabeled kinase activity assay
Chain of Dual specificity mitogen-activated protein kinase kinase 2 (Homo sapiens) (P36507 whole entry): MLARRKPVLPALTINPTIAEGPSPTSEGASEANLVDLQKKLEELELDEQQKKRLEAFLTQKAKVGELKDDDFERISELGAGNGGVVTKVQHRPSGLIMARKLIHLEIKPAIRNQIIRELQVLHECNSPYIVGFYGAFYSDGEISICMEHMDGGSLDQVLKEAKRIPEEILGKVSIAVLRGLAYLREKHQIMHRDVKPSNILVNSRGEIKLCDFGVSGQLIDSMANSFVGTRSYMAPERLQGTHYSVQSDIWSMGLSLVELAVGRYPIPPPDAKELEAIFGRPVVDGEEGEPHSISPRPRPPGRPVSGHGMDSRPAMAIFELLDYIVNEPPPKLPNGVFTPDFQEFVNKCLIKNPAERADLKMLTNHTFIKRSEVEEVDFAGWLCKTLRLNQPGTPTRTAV

[5] = biological target: Tyrosine-protein kinase Srms (Homo sapiens) (UniProt Q9H3Y6); assay: Inhibition of SRMS (unknown origin) at 10 uM after 120 mins P33 radiolabeled kinase activity assay
Chain of Tyrosine-protein kinase Srms (Homo sapiens) (Q9H3Y6 whole entry): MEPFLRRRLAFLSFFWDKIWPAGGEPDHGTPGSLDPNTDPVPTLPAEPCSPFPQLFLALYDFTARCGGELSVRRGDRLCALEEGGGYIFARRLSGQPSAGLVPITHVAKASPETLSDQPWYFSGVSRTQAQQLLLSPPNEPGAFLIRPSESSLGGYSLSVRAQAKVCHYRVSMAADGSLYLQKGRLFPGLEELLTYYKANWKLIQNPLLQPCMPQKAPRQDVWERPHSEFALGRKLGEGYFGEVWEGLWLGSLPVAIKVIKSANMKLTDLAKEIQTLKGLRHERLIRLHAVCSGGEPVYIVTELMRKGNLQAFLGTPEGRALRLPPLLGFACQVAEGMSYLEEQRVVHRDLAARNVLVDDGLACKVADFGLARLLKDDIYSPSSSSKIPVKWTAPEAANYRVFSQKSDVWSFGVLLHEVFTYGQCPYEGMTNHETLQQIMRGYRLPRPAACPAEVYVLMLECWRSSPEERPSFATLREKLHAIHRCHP

[6] = biological target: T3, Tyrosine-protein kinase TXK (Homo sapiens) (UniProt P42681); assay: Inhibition of TXK (unknown origin) at 10 uM after 120 mins P33 radiolabeled kinase activity assay
T3 sequence (whole entry): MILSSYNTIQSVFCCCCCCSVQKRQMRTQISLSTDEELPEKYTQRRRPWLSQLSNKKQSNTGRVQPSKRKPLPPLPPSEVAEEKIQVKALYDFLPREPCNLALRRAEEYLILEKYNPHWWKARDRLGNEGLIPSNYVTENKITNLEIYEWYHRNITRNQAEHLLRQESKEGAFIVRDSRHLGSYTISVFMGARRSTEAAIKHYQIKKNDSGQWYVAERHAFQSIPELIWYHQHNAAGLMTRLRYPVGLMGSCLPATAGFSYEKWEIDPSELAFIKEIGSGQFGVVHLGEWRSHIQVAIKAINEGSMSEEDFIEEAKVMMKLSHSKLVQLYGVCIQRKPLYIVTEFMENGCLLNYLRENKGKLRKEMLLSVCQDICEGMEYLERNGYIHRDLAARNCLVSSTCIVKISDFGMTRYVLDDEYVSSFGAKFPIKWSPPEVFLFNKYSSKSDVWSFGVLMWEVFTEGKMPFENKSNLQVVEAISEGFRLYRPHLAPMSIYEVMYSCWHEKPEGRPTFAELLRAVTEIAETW

[7] = biological target: T4, Serine/threonine-protein kinase BRSK1 (Homo sapiens) (UniProt Q8TDC3); assay: Inhibition of BRSK1 (unknown origin) at 10 uM after 120 mins P33 radiolabeled kinase activity assay
T4 sequence (whole entry): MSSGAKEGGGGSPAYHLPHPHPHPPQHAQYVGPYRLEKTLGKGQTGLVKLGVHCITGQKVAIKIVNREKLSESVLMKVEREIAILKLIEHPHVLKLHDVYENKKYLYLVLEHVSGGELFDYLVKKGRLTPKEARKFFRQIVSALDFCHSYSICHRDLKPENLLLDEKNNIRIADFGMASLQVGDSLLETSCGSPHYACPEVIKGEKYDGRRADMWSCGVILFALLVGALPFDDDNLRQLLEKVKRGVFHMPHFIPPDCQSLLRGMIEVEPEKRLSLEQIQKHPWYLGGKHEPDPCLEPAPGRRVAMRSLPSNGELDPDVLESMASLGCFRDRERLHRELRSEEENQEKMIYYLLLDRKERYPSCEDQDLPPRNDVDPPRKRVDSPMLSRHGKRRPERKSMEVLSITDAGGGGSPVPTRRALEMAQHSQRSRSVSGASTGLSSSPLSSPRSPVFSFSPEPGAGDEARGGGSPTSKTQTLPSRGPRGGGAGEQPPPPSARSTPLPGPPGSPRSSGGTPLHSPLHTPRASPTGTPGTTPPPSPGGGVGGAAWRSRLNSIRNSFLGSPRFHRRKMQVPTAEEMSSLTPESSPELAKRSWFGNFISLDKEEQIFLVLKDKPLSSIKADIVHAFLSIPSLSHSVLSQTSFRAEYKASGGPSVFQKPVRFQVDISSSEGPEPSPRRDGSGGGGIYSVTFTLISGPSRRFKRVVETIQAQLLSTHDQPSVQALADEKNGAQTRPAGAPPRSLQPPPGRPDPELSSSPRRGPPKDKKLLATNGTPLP

[8] = biological target: Mitogen-activated protein kinase kinase kinase kinase 2 (Homo sapiens) (UniProt Q12851); assay: Inhibition of GCK (unknown origin) at 10 uM after 120 mins P33 radiolabeled kinase activity assay
Chain of Mitogen-activated protein kinase kinase kinase kinase 2 (Homo sapiens) (Q12851 whole entry, looked up): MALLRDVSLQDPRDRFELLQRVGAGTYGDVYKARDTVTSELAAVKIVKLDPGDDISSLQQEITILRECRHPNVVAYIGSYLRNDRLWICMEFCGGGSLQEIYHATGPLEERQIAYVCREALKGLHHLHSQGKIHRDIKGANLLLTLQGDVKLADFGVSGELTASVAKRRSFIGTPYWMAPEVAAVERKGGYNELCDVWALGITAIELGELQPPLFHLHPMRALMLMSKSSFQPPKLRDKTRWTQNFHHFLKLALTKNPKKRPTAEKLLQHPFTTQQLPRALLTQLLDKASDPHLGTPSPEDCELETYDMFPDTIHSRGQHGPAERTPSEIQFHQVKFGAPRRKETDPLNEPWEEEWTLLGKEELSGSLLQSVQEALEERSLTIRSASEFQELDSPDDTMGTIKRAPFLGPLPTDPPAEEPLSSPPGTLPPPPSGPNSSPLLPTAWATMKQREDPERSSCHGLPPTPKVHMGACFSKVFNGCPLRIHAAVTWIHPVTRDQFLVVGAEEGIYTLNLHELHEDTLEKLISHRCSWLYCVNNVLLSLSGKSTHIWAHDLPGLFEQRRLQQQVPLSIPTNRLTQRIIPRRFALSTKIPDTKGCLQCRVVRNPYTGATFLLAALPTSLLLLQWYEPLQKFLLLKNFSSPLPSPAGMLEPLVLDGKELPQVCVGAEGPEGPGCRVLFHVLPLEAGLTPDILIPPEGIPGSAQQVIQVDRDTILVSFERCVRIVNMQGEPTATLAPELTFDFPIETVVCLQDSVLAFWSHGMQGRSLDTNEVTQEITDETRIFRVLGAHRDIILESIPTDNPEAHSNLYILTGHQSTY

Chain of Protein-tyrosine kinase 2-beta (Homo sapiens) (Q14289 whole entry, looked up): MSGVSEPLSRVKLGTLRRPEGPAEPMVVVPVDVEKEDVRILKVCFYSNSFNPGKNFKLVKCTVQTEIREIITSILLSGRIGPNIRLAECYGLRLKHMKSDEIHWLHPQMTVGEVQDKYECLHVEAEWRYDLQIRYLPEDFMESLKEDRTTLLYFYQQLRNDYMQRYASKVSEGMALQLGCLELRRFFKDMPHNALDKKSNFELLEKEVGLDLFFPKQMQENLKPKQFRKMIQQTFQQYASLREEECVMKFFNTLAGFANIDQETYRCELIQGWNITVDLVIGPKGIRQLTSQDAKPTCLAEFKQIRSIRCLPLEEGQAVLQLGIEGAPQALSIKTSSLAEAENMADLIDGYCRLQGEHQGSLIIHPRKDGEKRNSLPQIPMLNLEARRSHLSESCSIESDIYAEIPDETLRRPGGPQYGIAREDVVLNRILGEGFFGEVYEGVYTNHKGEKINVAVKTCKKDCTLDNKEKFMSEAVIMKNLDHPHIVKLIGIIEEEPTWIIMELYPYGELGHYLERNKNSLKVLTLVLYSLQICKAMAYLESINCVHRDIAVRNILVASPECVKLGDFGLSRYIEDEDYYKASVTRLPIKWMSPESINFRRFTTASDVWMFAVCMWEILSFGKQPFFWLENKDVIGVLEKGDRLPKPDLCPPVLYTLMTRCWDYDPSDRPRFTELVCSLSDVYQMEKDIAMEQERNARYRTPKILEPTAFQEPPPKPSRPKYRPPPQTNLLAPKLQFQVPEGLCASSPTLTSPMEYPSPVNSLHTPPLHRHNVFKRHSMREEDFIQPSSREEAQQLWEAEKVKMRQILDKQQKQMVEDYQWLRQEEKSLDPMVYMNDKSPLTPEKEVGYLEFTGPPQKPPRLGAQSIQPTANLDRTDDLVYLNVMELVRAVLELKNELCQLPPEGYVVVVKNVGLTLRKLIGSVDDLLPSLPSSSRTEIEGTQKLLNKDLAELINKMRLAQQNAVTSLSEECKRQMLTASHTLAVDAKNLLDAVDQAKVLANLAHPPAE

Row | inhibition [1] | inhibition [2] | inhibition [3] | inhibition [4] | inhibition [5] | inhibition [6] | inhibition [7] | inhibition [8] | Structure (SMILES)
1 | 7.67% | 15.1% | 3.09% | -5.83% | 4.18% | 27.8% | 18.7% | -3.21% | COCCNC(=O)c1ccc2c(c1)nc(-c1cnc(-c3ccc(Cl)cc3)[nH]1)n2CCOC
2 | 23.7% | 96.8% | 46.2% | 79% | 98.4% | 97.5% | 49.8% | -0.78% | CS(=O)(=O)c1cccc(Nc2nccc(-c3sc(N4CCOCC4)nc3-c3cccc(NS(=O)(=O)c4c(F)cccc4F)c3)n2)c1
3 | 16.5% | 15.4% | 3.9% | 52.5% | -2.8% | 24.8% | 16.8% | 57.4% | CC(C)(C)c1cc(NC(=O)Nc2ccc(Oc3ccncc3)cc2)no1

Reference: ChEMBL document CHEMBL3627608, “Crystal structures of human RIP2 kinase catalytic domain complexed with ATP-competitive inhibitors: Foundations for understanding inhibitor selectivity” (Bioorg Med Chem, 2015)
